From patent publication US20090155387A1, “STABLE PHARMACEUTICAL COMPOSITION COMPRISING BETA-LACTAM ANTIBIOTIC AND ION-CHELATING AGENT” (priority 2006, published 2009)

Experiment: Amounts of β-lactam antibiotic, β-lactamase inhibitor and aminoglycoside antibiotic in solution over time (reverse-phase LC/HPLC)
Format: physicochemical
Outline: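 β-Lactam antibiotic and β-lactamase inhibitor quantified by C18 reverse-phase LC with UV-VIS detection; aminoglycoside by reverse-phase HPLC with evaporative light-scattering detection. Peak areas taken relative to an external standard, with each component at each time point given as a percentage of its initial amount.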

With CC1(C)[C@H](C(=O)O)N2C(=O)C[C@H]2S1(=O)=O [Sulbactam sodium] the “amount (percentage of initial amount)” value (in Example 4 solution (no EDTA), pH 6.75, room temperature, 0 h) was 101.4%, the “amount (percentage of initial amount)” value (in Example 4 solution (no EDTA), pH 6.75, room temperature, 1 h) was 101.4% and the “amount (percentage of initial amount)” value (in Example 4 solution (no EDTA), pH 6.75, room temperature, 2 h) was 101.5%. The “amount (percentage of initial amount)” value (in Example 4 solution (no EDTA), pH 6.75, room temperature, 4 h) was 109.7%, the “amount (percentage of initial amount)” value (in Example 4 solution (no EDTA), pH 6.75, room temperature, 6 h) was 103.2% and the “amount (percentage of initial amount)” value (in Example 5 solution, pH 6.75, room temperature, 0 h) was 101.4%. For the same molecule, the “amount (percentage of initial amount)” value (in Example 5 solution, pH 6.75, room temperature, 1 h) was 101.4%, the “amount (percentage of initial amount)” value (in Example 5 solution, pH 6.75, room temperature, 2 h) was 101.5% and the “amount (percentage of initial amount)” value (in Example 5 solution, pH 6.75, room temperature, 4 h) was 109.7%. The “amount (percentage of initial amount)” value (in Example 5 solution, pH 6.75, room temperature, 6 h) was 103.2%, the “amount (percentage of initial amount)” value (in Example 6 solution, pH 6.5, room temperature, 0 h) was 99.62% and the “amount (percentage of initial amount)” value (in Example 6 solution, pH 6.5, room temperature, 1 h) was 100.4%. For the same molecule, the “amount (percentage of initial amount)” value (in Example 6 solution, pH 6.5, room temperature, 2 h) was 100.2%, the “amount (percentage of initial amount)” value (in Example 6 solution, pH 6.5, room temperature, 4 h) was 100.2% and the “amount (percentage of initial amount)” value (in Example 7 solution, pH 6.75, room temperature, 0 h) was 96.84%. The “amount (percentage of initial amount)” value (in Example 7 solution, pH 6.75, room temperature, 1 h) was 94.43%, the “amount (percentage of initial amount)” value (in Example 7 solution, pH 6.75, room temperature, 2 h) was 93.35% and the “amount (percentage of initial amount)” value (in Example 7 solution, pH 6.75, room temperature, 4 h) was 93.23%. For the same molecule, the “amount (percentage of initial amount)” value (in Example 7 solution, pH 6.75, room temperature, 6 h) was 92.13%, the “amount (percentage of initial amount)” value (in Example 7 solution, pH 6.75, room temperature, 8 h) was 93.38% and the “amount (percentage of initial amount)” value (in Example 12 solution (no aminoglycoside) from freeze-dried powder stored 7 days at 0° C., redissolved, 0 h) was 98.5%. For the same molecule, the “amount (percentage of initial amount)” value (in Example 12 solution (no aminoglycoside) from freeze-dried powder stored 7 days at 0° C., redissolved, 1 h) was 98.7%, the “amount (percentage of initial amount)” value (in Example 12 solution (no aminoglycoside) from freeze-dried powder stored 7 days at 0° C., redissolved, 2 h) was 98.2% and the “amount (percentage of initial amount)” value (in Example 12 solution (no aminoglycoside) from freeze-dried powder stored 7 days at 0° C., redissolved, 4 h) was 95.6%. For the same molecule, the “amount (percentage of initial amount)” value (in Example 12 solution (no aminoglycoside) from freeze-dried powder stored 7 days at 0° C., redissolved, 6 h) was 94.0%, the “amount (percentage of initial amount)” value (in Example 12 solution (no aminoglycoside) from freeze-dried powder stored 7 days at 0° C., redissolved, 8 h) was 96.1% and the “amount (percentage of initial amount)” value (in Example 14 solution, pH 6.5, room temperature, 0 h) was 92.44%. For the same molecule, the “amount (percentage of initial amount)” value (in Example 14 solution, pH 6.5, room temperature, 1 h) was 91.27%, the “amount (percentage of initial amount)” value (in Example 14 solution, pH 6.5, room temperature, 2 h) was 90.78% and the “amount (percentage of initial amount)” value (in Example 14 solution, pH 6.5, room temperature, 4 h) was 88.38%. The “amount (percentage of initial amount)” value (in Example 14 solution, pH 6.5, room temperature, 6 h) was 86.86%, the “amount (percentage of initial amount)” value (in Example 15 solution, pH 6.5, room temperature, 0 h) was 99.50% and the “amount (percentage of initial amount)” value (in Example 15 solution, pH 6.5, room temperature, 1 h) was 96.28%. The “amount (percentage of initial amount)” value (in Example 15 solution, pH 6.5, room temperature, 2 h) was 102.5%, the “amount (percentage of initial amount)” value (in Example 15 solution, pH 6.5, room temperature, 4 h) was 95.78% and the “amount (percentage of initial amount)” value (in Example 15 solution, pH 6.5, room temperature, 6 h) was 70.74%. The “amount (percentage of initial amount)” value (in Example 17 solution, pH 6.5, room temperature, 0 h) was 114.3%, the “amount (percentage of initial amount)” value (in Example 17 solution, pH 6.5, room temperature, 1 h) was 95.83% and the “amount (percentage of initial amount)” value (in Example 17 solution, pH 6.5, room temperature, 2 h) was 93.75%. The “amount (percentage of initial amount)” value (in Example 17 solution, pH 6.5, room temperature, 4 h) was 93.78%, the “amount (percentage of initial amount)” value (in Example 17 solution, pH 6.5, room temperature, 6 h) was 95.65% and the “amount (percentage of initial amount)” value (in Example 17 solution, pH 6.5, room temperature, 8 h) was 101.0%. The “amount (percentage of initial amount)” value (in Example 18 solution (2.5% fructose), pH 6.5, room temperature, 0 h) was 98.07%, the “amount (percentage of initial amount)” value (in Example 18 solution (2.5% fructose), pH 6.5, room temperature, 1 h) was 98.13% and the “amount (percentage of initial amount)” value (in Example 18 solution (2.5% fructose), pH 6.5, room temperature, 2 h) was 72.96%. For the same molecule, the “amount (percentage of initial amount)” value (in Example 18 solution (2.5% fructose), pH 6.5, room temperature, 4 h) was 95.16%, the “amount (percentage of initial amount)” value (in Example 18 solution (2.5% fructose), pH 6.5, room temperature, 6 h) was 99.65% and the “amount (percentage of initial amount)” value (in Example 18 solution (2.5% fructose), pH 6.5, room temperature, 8 h) was 104.9%. The “amount (percentage of initial amount)” value (in Example 19 solution, pH 6.75, room temperature, 0 h) was 108.8%, the “amount (percentage of initial amount)” value (in Example 19 solution, pH 6.75, room temperature, 1 h) was 109.6% and the “amount (percentage of initial amount)” value (in Example 19 solution, pH 6.75, room temperature, 2 h) was 111.7%. For the same molecule, the “amount (percentage of initial amount)” value (in Example 19 solution, pH 6.75, room temperature, 4 h) was 115.9%, the “amount (percentage of initial amount)” value (in Example 19 solution, pH 6.75, room temperature, 6 h) was 120.7% and the “amount (percentage of initial amount)” value (in Example 19 solution, pH 6.75, room temperature, 8 h) was 125.6%. The “amount (percentage of initial amount)” value (in Example 20 solution (no EDTA), pH 6.75, room temperature, 0 h) was 105.6%, the “amount (percentage of initial amount)” value (in Example 20 solution (no EDTA), pH 6.75, room temperature, 1 h) was 112.2% and the “amount (percentage of initial amount)” value (in Example 20 solution (no EDTA), pH 6.75, room temperature, 2 h) was 112.6%. The “amount (percentage of initial amount)” value (in Example 20 solution (no EDTA), pH 6.75, room temperature, 4 h) was 118.5%, the “amount (percentage of initial amount)” value (in Example 20 solution (no EDTA), pH 6.75, room temperature, 6 h) was 123.3% and the “amount (percentage of initial amount)” value (in Example 20 solution (no EDTA), pH 6.75, room temperature, 8 h) was 127.1%. For the same molecule, the “amount (percentage of initial amount)” value (in Example 22 solution (2.5% fructose), pH 6.0, room temperature, 0 h) was 101.4%, the “amount (percentage of initial amount)” value (in Example 22 solution (2.5% fructose), pH 6.0, room temperature, 1 h) was 107.6% and the “amount (percentage of initial amount)” value (in Example 22 solution (2.5% fructose), pH 6.0, room temperature, 2 h) was 101.3%. The “amount (percentage of initial amount)” value (in Example 22 solution (2.5% fructose), pH 6.0, room temperature, 4 h) was 104.4%, the “amount (percentage of initial amount)” value (in Example 22 solution (2.5% fructose), pH 6.0, room temperature, 6 h) was 104.4% and the “amount (percentage of initial amount)” value (in Example 22 solution (2.5% fructose), pH 6.0, room temperature, 8 h) was 91.39%. The “amount (percentage of initial amount)” value (in Example 24 solution, pH 6.75, room temperature, 0 h) was 90.06%, the “amount (percentage of initial amount)” value (in Example 24 solution, pH 6.75, room temperature, 1 h) was 94.26% and the “amount (percentage of initial amount)” value (in Example 24 solution, pH 6.75, room temperature, 2 h) was 100.5%. For the same molecule, the “amount (percentage of initial amount)” value (in Example 24 solution, pH 6.75, room temperature, 4 h) was 89.94%, the “amount (percentage of initial amount)” value (in Example 24 solution, pH 6.75, room temperature, 6 h) was 94.26% and the “amount (percentage of initial amount)” value (in Example 24 solution, pH 6.75, room temperature, 8 h) was 105.0%. For the same molecule, the “amount (percentage of initial amount)” value (in Example 25 solution, pH 6.75, room temperature, 0 h) was 99.32%, the “amount (percentage of initial amount)” value (in Example 25 solution, pH 6.75, room temperature, 1 h) was 107.5% and the “amount (percentage of initial amount)” value (in Example 25 solution, pH 6.75, room temperature, 2 h) was 97.91%. The “amount (percentage of initial amount)” value (in Example 25 solution, pH 6.75, room temperature, 4 h) was 83.79%, the “amount (percentage of initial amount)” value (in Example 25 solution, pH 6.75, room temperature, 6 h) was 94.52% and the “amount (percentage of initial amount)” value (in Example 25 solution, pH 6.75, room temperature, 8 h) was 105.5%.
